The values that follow come from patent US9682931B2, “Aryloyl(oxy or amino)pentafluorosulfanylbenzene compound, pharmaceutically acceptable salt thereof, and prodrugs thereof” (UBE INDUSTRIES, LTD., priority 2013, dated 2017).

The subject of series [1] is Trichophyton mentagrophytes NBRC5466 (trichophyton). As to the kind of experiment: Antifungal test, minimum inhibitory concentration (MIC), trichophyton. It counts as cell-based. The conditions noted are these: NBRC5466, 168 h, 27±2° C., 7 days. The method, then:
Antimicrobial/Antifungal Test
Measurement of the Minimum Inhibitory Concentration (MIC) of a Test Substance
The minimum inhibitory concentration (MIC) of test substances (Compound 3, Compound 7) on a microorganism was measured.
1) Test Microbe (a) Staphylococcus aureus MRSAIID 1677 (methicillin-resistant staphylococcus aureus; MRSA) (b) Trichophyton mentagrophytes NBRC5466 (trichophyton)
2) Preparation of Microbe Solution for Inoculation
Test microbe (b): A strain cryopreserved was applied on PDA medium and cultured at 27±2° C. for 7 days. Spores were scraped out and suspended in a test microbe preparation solution, filtered with absorbent cotton. The solution was prepared so as to have a number of spores of about 10^6 CFU/mL. The test microbe solution prepared was serially diluted by 10-fold and cultured at 27±2° C. for 7 days and then the microbe cells were counted.
3) Serial Dilution of Test Substance
Two-fold serial dilutions of a test substance were prepared in the following procedure. To a test substance (1 mg), a medium (5 mL) for measuring the sensitivity of each microbe strains was added to obtain a stock solution of 200 μg/mL. […]
A test microbe solution (5 μL) was added dropwise to individual wells of the microplate. […] After culture, whether the microbe proliferated or not was determined by the naked eye. […]

The test system of a further series is RBL-2H3 cells. As to the kind of experiment: Degranulation suppression test of RBL-2H3 cells (β-hexosaminidase release, IgE stimulation). Particulars: for Degranulation ratio: relative to untreated control, n = 4. It counts as cell-based, Rat. The method, then:
1. Degranulation Suppression Test of RBL-2H3 Cells
As to Compound 3, the granule release (degranulation) suppression action on RBL-2H3 cell by IgE stimulation, which is a cell model for an allergic reaction, was examined.
A test substance (50 mg) was dissolved by adding 1 mL of 50 vol % ethanol to the test substance to obtain a concentration of 50 mg/mL. The solution thus obtained was diluted with a buffer solution. […] The concentrations were all indicated as the concentrations in cell supernatants.
β-Hexosaminidase abundantly present in granules of RBL-2H3 cells was used as the index of degranulation caused by IgE stimulation, and p-nitrophenol produced by the reaction with a substrate was measured by colorimetric assay. The activity values of β-hexosaminidase present within cells and released in the culture supernatant were determined to obtain the release rate of β-hexosaminidase, and then, a degranulation rate relative to an untreated control was obtained. Based on this, degranulation inhibitory action was evaluated.
Main test conditions and outline of the operation will be described below.
Cell: Rat basophil leukemic cell, RBL-2H3 [Human Sciences Foundation]
Stimulation of degranulation: Anti-DNP-IgE antibody, DNP labeled albumin [Sigma-Aldrich Corporation]
Degranulation Index: 3-Hexosaminidase activity
Measurement apparatus: Microplate reader, SpectraMax M2c • [Molecular Devices Corporation]
In this test, an action to suppress granule release (degranulation) in mast cells caused by an IgE antigen stimulation is evaluated. Thus, the smaller the degranulation ratio is, the stronger the effect is […]

The test system of series [2] is lumen formed in angiogenesis kit with VEGF-A. As to the kind of experiment: Angiogenesis inhibitory action (angiogenesis kit, VEGF-A, CD31 staining, area and length of lumen). The conditions noted are these: 5 μg/mL, VEGF-A 10 ng/mL, 11 days. The format is cell-based. An excerpt: Angiogenesis Inhibitory Action
The angiogenesis inhibitory action of a test substance (Compound 3) was examined by use of measuring reagents and analysis software described below.
1. Measuring Reagents and Analysis Software
Angiogenesis kit (Cat. No. KZ-1000), manufactured by KURABO INDUSTRIES LTD.
Angiogenic agent VEGF-A (Cat. No. KZ-1350), manufactured by KURABO INDUSTRIES LTD.
Lumen staining kit (for staining CD31, Cat. No. ZHA-1225), manufactured by KURABO INDUSTRIES LTD.
Image analysis software: Angiogenesis Image Analyzer V2.0, manufactured by KURABO INDUSTRIES LTD.
Herein, as a culture medium, angiogenesis specific medium-2 (hereinafter referred to as the medium) provided in the above angiogenesis kit.
Positive control: Medium containing VEGF-A (10 ng/mL)
Negative control: Medium containing VEGF-A (10 ng/mL) and Suramin (50 μmol/L)
3. Preparation of Samples
A test substance was weighed at the starting day of a test. The medium was added so as to be 500 μg/mL. Sonication was performed while heating at 37° C. for 60 minutes to be dissolved. Then, filtration was performed by a 0.22 μm filter. The 500 μg/mL-solution was serially diluted with the medium in a common ratio of 10. […]
The pictures were subjected to image analysis by use of image analysis software, Angiogenesis Image Analyzer V 2.0, and the area and length of the lumen formed were measured.

SMILES strings stand for the structures. ≈ marks a conversion by molar mass, not a printed value.

What is called MIC is the lowest concentration found to suppress growth. A higher MIC goes with a need for much substance. `O=C(Oc1ccc(S(F)(F)(F)(F)F)cc1)c1cc(O)c(O)c(O)c1` [Compound 7, 4-(3,4,5-trihydroxybenzoyloxy)pentafluorosulfanylbenzene]: the MIC in series [1] was determined as 6.3 µg/mL (≈ 16.9 µM).
With `O=C(Nc1ccc(S(F)(F)(F)(F)F)cc1)c1cc(O)c(O)c(O)c1` [Compound 3, 4-(3,4,5-trihydroxybenzoylamino)pentafluorosulfanylbenzene], the “cytotoxicity (visual)” value in the series with RBL-2H3 cells (RBL-2H3 cells, any concentration) is reported as “not visually confirmed”. For the same compound, the Degranulation ratio in the series with RBL-2H3 cells (sample 1 μg/mL) amounted to 91%; in the series with RBL-2H3 cells (sample 10 μg/mL), 85%; in the series with RBL-2H3 cells (sample 25 μg/mL), 73%; in the series with RBL-2H3 cells (sample 50 μg/mL in cell supernatant) it was 35%; with RBL-2H3 cells (sample 100 μg/mL in cell supernatant), 19%. Besides, the “angiogenesis inhibitory effect (area and length of lumen)” value in series [2] is “angiogenesis inhibitory effect was confirmed”.
